We go through 14 molecules from ChEMBL document CHEMBL1132888, “4,10-Dihydro-4-oxo-4H-imidazo[1,2-a]indeno[1,2-e]pyrazin-2-carboxylic acid derivatives: highly potent and selective AMPA receptors antagonists with in vivo activity” (Bioorg Med Chem Lett, 2000).

The source made the active and inactive calls. No cut-off for these calls is given here.

The test system of assay [1] is Mus musculus. As to the kind of experiment: Effective dose of the intraperitoneally administered compound required to protect 50% of mice from tonic convulsion caused by maximal electric shock (MES). Type of assay: functional. The conditions noted are these: ip.
Assay [2] addresses Glutamate receptor ionotropic, kainate. The conditions noted are these: oocyte.
A further assay deals with Glutamate NMDA receptor. The assay is described as follows: Displacement of [3H]DCKA from N-methyl-D-aspartate glutamate receptor of rat cortical membrane. (Loss of bound radioactivity is the signal in a displacement assay; it reports binding, not function.)
The target in assay [3] is Glutamate receptor ionotropic, AMPA (Rattus norvegicus, UniProt P19490+P19491+P19492+P19493).
Description: Displacement of [3H]AMPA from Ionotropic glutamate receptor AMPA of rat cortical membranes
Assay [4] deals with Mus musculus. As to the kind of experiment: Effective dose of the intraperitoneally administered compound required to protect 50% of DBA/2 mice from tonico-clonic convulsion. In kind it is functional. The conditions noted are these: ip.
In assay [5] the target is Glutamate receptor ionotropic, kainate (Rattus norvegicus) (UniProt P22756+Q01812+P42260+P42264+Q63273). As to the kind of experiment: Inhibitory activity against generation of currents by 50 uM kainate in Xenopus oocytes injected with rat brain mRNA. The conditions noted are these: Oocyte. Type of assay: functional, cell-based.
Assay [6] deals with Mus musculus. As to the kind of experiment: Compound tested for sound induced convulsions in DBA/2 mice following ip administration; Compound was active. In kind it is functional, organism-based.

The ED50 is the midpoint of the dose-response relation. A lower ED50 goes with greater potency. The IC50 is the point on the concentration scale where inhibition reaches its midpoint. A higher IC50 goes with lower potency. As for `Oc1nc2c(n3ccnc13)Cc1ccccc1-2`, the 50% effect level in the assay on Mus musculus [1] (ED50) was put at a dose of 62 mg/kg. This molecule also had a half-maximal inhibitory concentration (IC50) in assay [2] of 1800 nM.
As for `O=C(O)c1cn2c3c(nc(O)c2n1)-c1ccc(F)cc1C3`, the 50% effect level in the assay with Mus musculus [1] (ED50) was put at a dose of 56 mg/kg. Further, the concentration for half-maximal inhibition (IC50) on Glutamate NMDA receptor turned out to be 455 nM; in assay [3] it was 60 nM; in assay [2], 25 nM.
In the case of `CCOC(=O)c1cn2c3c(nc(O)c2n1)-c1ccc(F)cc1C3`, the 50% effective dose (ED50) in the assay on Mus musculus [1] is > 80 mg/kg. For the same molecule, half-maximal inhibition in assay [3] (IC50) required 55 nM.
With `CCOC(=O)c1cn2c3c(nc(O)c2n1)-c1ccc(NC(=O)NC)cc1C3`, the ED50 in the assay on Mus musculus [4] is > 20 mg/kg; in the assay with Mus musculus [1] it was > 80 mg/kg. The half-inhibitory concentration (IC50) on Glutamate NMDA receptor is 10000 nM; in assay [3], 9 nM; in assay [2] it was 6 nM.
Consider `Nc1ccc2c(c1)Cc1c-2nc(O)c2nc(C(=O)O)cn12`, for which the 50% effective dose (ED50) in the assay with Mus musculus [1] was determined as 80 mg/kg. Further, the 50% inhibitory concentration (IC50) on Glutamate NMDA receptor was 6900 nM; in assay [3], 473 nM; in assay [2] it was 236 nM.
The molecule `O=C(O)[C@@H]1C[C@H]2C[C@@H](CCc3nn[nH]n3)CC[C@H]2CN1` [TEZAMPANEL ANHYDROUS] yielded an ED50 in the assay on Mus musculus [1] of 4 mg/kg. For the same molecule, the half-maximal inhibitory concentration (IC50) in assay [2] is 230 nM.
Take `CNC(=O)Nc1ccc2c(c1)C(CC(=O)O)c1c-2nc(O)c2nccn12` (racemic): the ED50 was determined as 0.9 mg/kg with Mus musculus [4] and 1 mg/kg in the assay on Mus musculus [1]. For the same molecule, the 50% inhibitory concentration (IC50) at Glutamate NMDA receptor turned out to be 10000 nM; in assay [2] it was 2 nM.
In turn, `CN1CCCC12c1ccccc1-c1nc(O)c3nccn3c12` (racemic) came in with an ED50 in the assay with Mus musculus [1] of 17 mg/kg. In assay [2], this molecule yielded an IC50 of 890 nM.
Regarding `NC(=O)c1cn2c3c(nc(O)c2n1)-c1ccccc1C3`, in the assay with Mus musculus [1], the ED50 was > 80 mg/kg. In addition, the half-maximal inhibitory concentration (IC50) on Glutamate NMDA receptor is 730 nM; in assay [3], 476 nM; in assay [2] it was 1250 nM.
For the molecule `O=C(O)c1cn2c3c(nc(O)c2n1)-c1ccccc1C3`, the ED50 in the assay with Mus musculus [4] came out at 20 mg/kg; in the assay on Mus musculus [1] it was 50 mg/kg. For the same molecule, the concentration for half-maximal inhibition (IC50) in assay [3] was 150 nM; in assay [2], 30 nM.
On to `O=c1[nH]c2cc(-n3ccnc3)c([N+](=O)[O-])cc2[nH]c1=O` [YM-90K], for which the values for the ED50 with Mus musculus [4] and in the assay with Mus musculus [1] were 15 mg/kg and 12 mg/kg, respectively. The molecule further showed an IC50 in assay [2] of 260 nM.
For the molecule `CNC(=O)Nc1ccc2c(c1)Cc1c-2nc(O)c2nc(C(=O)O)cn12`, the Kb in assay [5] was found to be 3.92 nM. In the assay with Mus musculus [6], the result was Active. Further, the ED50 is 0.5 mg/kg in the assay with Mus musculus [4] and 0.7 mg/kg with Mus musculus [1]. Also, the half-maximal inhibitory concentration (IC50) at Glutamate NMDA receptor was 4330 nM; in assay [3], 9 nM.
Consider `NS(=O)(=O)c1cccc2c1c([N+](=O)[O-])cc1nc(O)c(O)nc12` [NBQX], for which the ED50 in the assay on Mus musculus [4] came out at 13 mg/kg; in the assay on Mus musculus [1], 36 mg/kg. On Glutamate NMDA receptor, the IC50 was > 10000 nM.
With `CCOC(=O)c1cn2c3c(nc(O)c2n1)-c1ccccc1C3`, the 50% effective dose (ED50) in the assay on Mus musculus [4] and in the assay with Mus musculus [1] was > 80 mg/kg in each case. The IC50 at Glutamate NMDA receptor amounted to 198 nM; in assay [3], 210 nM; in assay [2], 350 nM.
